Results reported in patent US20120101093A1, “SUBSTITUTED IMIDAZO[1,2-A]PYRIDINE DERIVATIVES, PHARMACEUTICAL COMPOSITIONS, AND METHODS OF USE AS BETA-SECRETASE INHIBITORS” (HIGH POINT PHARMACEUTICALS, LLC, priority 2009, published 2012).

Assays:
[1] = system: Aβ1-40 secreted from HEK293 cells stably expressing wildtype human APP695 protein (HEK-APPwt cells); experiment: Aβ Cell Based Assay (Aβ1-40 secretion, ELISA); settings: 6 hours incubation, reduction of Aβ1-40 secretion
Description: Aβ Cell Based Assay Procedure
In the following assay, the proteolytic activity of BACE in cells exposed to varying concentrations of a compound of interest is measured by observing the amount of Aβ1-40 secreted from HEK293 cells (Human Embryonic Kidney epithelial cell line) stably expressing wildtype human APP695 protein (HEK-APPwt cells).
HEK-APPwt cells were grown in high glucose DMEM (Dulbecco's Modified Eagles Medium SIGMA Cat.# D5796) supplemented with 25 mM HEPES (4-(2-hydroxyethyl)-1-piperazineethanesulfonic acid) (pH 7.4) (Invitrogen Cat.# 15630-114), 0.1 mM NEAA (Non-essential Amino Acids) (BioWhittaker Cat. #13-114E), 10% fetal bovine serum (SIGMA Cat. #F4135) and 250 μg/mL hygromycin (Invitrogen Cat. #10687-010) in T-225 flasks at 37° C. with 5% CO2 and humidity control.
Test compounds were initially prepared in DMSO and diluted with DMEM media containing 2% FBS (Fetal bovine serum). Ten standard compound solutions were prepared having a range of concentrations. The standard compound solutions were used to determine the EC50 of the test compound. The range of concentrations chosen may depend on the compound's predicted potency.
To prepare the cells for the assay, a flask containing HEK-APPwt cells were trypsinized briefly (1 mL trypsin), and once the cells detached, 4 mL of 10% FBS-DMEM was added to the flask. The detached cells were centrifuged at 900 rpm for 5 min to form a pellet.
The HEK-APPwt cell pellet was re-suspended with 10 mL DMEM media containing 2% FBS. 80 μL of the cell suspension was added to each well of a 96-well cell culture plate to give 100×10^4cells/ml. 10 μL of a standard compound solution was added to each well of the 96-well cell culture plate followed by 10 μL of Alamar blue solution. The cells were incubated at 37° C. in a 5% CO2 incubator for 6 hours.
At the end of the incubation, the plates were removed from incubator, and the supernatant was collected. A≈1-40 concentration in the medium was measured by using a commercial Aβ1-X ELISA kit (IBL, Japan Cat. #27729). Briefly, the ELISA plates were coated with an anti-human AO (N)(82E1) mouse IgG monoclonal antibody. A horseradish peroxidase conjugated anti-human Aβ11-28 mouse IgG monoclonal antibody was used for detection. The cell culture supernatant was diluted with EIA buffer +protease inhibitors (kit buffer containing protease inhibitors (1 mL PI/30 mL buffer)). A 100 μL aliquot of the diluted supernatant was added to each well of the ELISA plate and incubated for 6 hrs at 4° C. The ELISA plate was washed 8 times with phosphate buffered saline (PBS) containing 0.05% Tween 20.
A 100 μL of detection antibody was then added and incubated for 1 hour at 4° C. The plate was washed 8 times with PBS buffer containing 0.05% Tween 20 followed by addition of 100 μL of the chromogen tetramethylbenzidine (TMB). The plate was incubated in the dark at room temperature for about 30 min and a stop solution (1N H2SO4) was added.
The intensity of the color developed was measured at 450 nm. The optical density at 450 nm (OD450) is proportional to the concentration of human Aβ1-40 secreted by the cell. As a reference, N-[N-(3,5-difluorophenacetyl-L-alanyl)]-S-phenylglycine t-butyl ester (DAPT, a γ-secretase inhibitor) was used to indicate 100% inhibition of BACE activity. Thus, the assay measures the ability of a compound of interest to reduce Aβ1-40 secretion. For select compounds, compound potency is reported in Table 3 as the EC50 by calculating the percent inhibition at all concentration levels and the data were fit with non-linear curve fitting algorithm using GraphPad Prism.

BACE-1 enzyme = target: T1, BACE-1 enzyme (Homo sapiens, UniProt P56817); experiment: BACE Fluorescence Resonance Energy Transfer (FRET) Assay; format: biochemical; settings: pH 4-4.5, 30 min pre-incubation, about 1.5 hours reaction
T1 construct: purchased R & D Systems 931AS
T1 sequence (P56817 46-457 limits assumed): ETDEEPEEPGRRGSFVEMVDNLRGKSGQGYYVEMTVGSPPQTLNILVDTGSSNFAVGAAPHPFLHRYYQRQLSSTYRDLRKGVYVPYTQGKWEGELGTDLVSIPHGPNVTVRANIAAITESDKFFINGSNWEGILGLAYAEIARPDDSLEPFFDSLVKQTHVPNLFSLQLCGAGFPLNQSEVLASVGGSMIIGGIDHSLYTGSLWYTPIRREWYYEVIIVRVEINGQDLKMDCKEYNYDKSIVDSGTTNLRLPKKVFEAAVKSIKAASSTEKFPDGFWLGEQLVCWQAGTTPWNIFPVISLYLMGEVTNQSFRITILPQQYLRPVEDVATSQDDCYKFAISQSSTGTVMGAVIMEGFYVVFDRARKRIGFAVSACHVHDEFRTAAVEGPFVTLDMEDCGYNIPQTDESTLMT
How it was run: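 Fluorescence (ex 540, em 585 nm) after ~1.5 h room-temperature cleavage of a quenched rhodamine peptide tracks BACE-1 activity. Enzyme and compound first sit 30 min in pH 4-4.5 acetate buffer with CHAPS, Triton X-100, EDTA, 7.5% DMSO. Values given as IC50 or % inhibition.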

Structure (SMILES) | EC50 ([1]; Homo sapiens, HEK293, 6 h) [µM] | IC50 (BACE-1 enzyme) [µM] | EC50 [1] [µM]
Cc1cccn2cc(C(=O)Nc3nc4cc(-c5ccc(F)c(Cl)c5)ccc4[nH]3)nc12 [Example 65, 8-Methyl-imidazo[1,2-a]pyridine-2-carboxylic acid [5-(3-chloro-4-fluoro-phenyl)-1H-benzoimidazol-2-yl]-amide] | 0.96 | 0.3 | –
Cc1cccc2nc(C(=O)Nc3nc4cc(-c5ccc(Cl)cc5)ccc4[nH]3)cn12 [Example 68, 5-Methyl-imidazo[1,2-a]pyridine-2-carboxylic acid [5-(4-chloro-phenyl)-1H-benzoimidazol-2-yl]-amide] | 1.61 | 0.48 | –
Cc1cccn2cc(C(=O)Nc3nc4cc(-c5ccc(Cl)cc5)ccc4[nH]3)nc12 [Example 69, 8-Methyl-imidazo[1,2-a]pyridine-2-carboxylic acid [5-(4-chloro-phenyl)-1H-benzoimidazol-2-yl]-amide] | 6.97 | 0.46 | –
Cc1cccc2nc(C(=O)Nc3nc4cc(-c5cc(C(F)(F)F)ccc5F)ccc4[nH]3)cn12 [Example 70, 5-Methyl-imidazo[1,2-a]pyridine-2-carboxylic acid [5-(2-fluoro-5-trifluoromethyl-phenyl)-1H-benzoimidazol-2-yl]-amide] | 0.21 | 0.26 | –
Cc1cccn2cc(C(=O)Nc3nc4cc(-c5cc(C(F)(F)F)ccc5F)ccc4[nH]3)nc12 [Example 71, 8-Methyl-imidazo[1,2-a]pyridine-2-carboxylic acid [5-(2-fluoro-5-trifluoromethyl-phenyl)-1H-benzoimidazol-2-yl]-amide] | 1.56 | 0.36 | –
CCOC(=O)c1cccc(-c2ccc3[nH]c(NC(=O)c4cn5c(C)cccc5n4)nc3c2)c1 [Example 72, 3-{2-[(5-Methyl-imidazo[1,2-a]pyridine-2-carbonyl)-amino]-1H-benzoimidazol-5-yl}-benzoic acid ethyl ester] | 1.51 | 0.62 | –
COc1ccc(-c2ccc3[nH]c(NC(=O)c4cn5c(C)cccc5n4)nc3c2)cc1C(F)(F)F [Example 76, 5-Methyl-imidazo[1,2-a]pyridine-2-carboxylic acid [5-(4-methoxy-3-trifluoromethyl-phenyl)-1H-benzoimidazol-2-yl]-amide] | 0.89 | 0.38 | –
Cc1cccc2nc(C(=O)Nc3nc4cc(-c5ccc(C(C)(C)C)cc5)ccc4[nH]3)cn12 [Example 77, 5-Methyl-imidazo[1,2-a]pyridine-2-carboxylic acid [5-(4-tert-butyl-phenyl)-1H-benzoimidazol-2-yl]-amide] | 0.85 | 0.61 | –
Cc1cccn2cc(C(=O)Nc3nc4cc(-c5ccc(C(C)(C)C)cc5)ccc4[nH]3)nc12 [Example 78, 8-Methyl-imidazo[1,2-a]pyridine-2-carboxylic acid [5-(4-tert-butyl-phenyl)-1H-benzoimidazol-2-yl]-amide] | 0.98 | 0.37 | –
CCOc1ccc(-c2ccc3[nH]c(NC(=O)c4cn5c(C)cccc5n4)nc3c2)cc1Cl [Example 79, 5-Methyl-imidazo[1,2-a]pyridine-2-carboxylic acid [5-(3-chloro-4-ethoxy-phenyl)-1H-benzoimidazol-2-yl]-amide] | – | 1.82 | 1.54
CCOc1ccc(-c2ccc3[nH]c(NC(=O)c4cn5c(C)cccc5n4)nc3c2)cc1F [Example 80, 5-Methyl-imidazo[1,2-a]pyridine-2-carboxylic acid [5-(4-ethoxy-3-fluoro-phenyl)-1H-benzoimidazol-2-yl]-amide] | 1.32 | 0.81 | –
Cc1cccc2nc(C(=O)Nc3nc4cc(-c5cccc(C#N)c5)ccc4[nH]3)cn12 [Example 82, 5-Methyl-imidazo[1,2-a]pyridine-2-carboxylic acid [5-(3-cyano-phenyl)-1H-benzoimidazol-2-yl]-amide] | 1.1 | 2.21 | –
Cc1cccc2nc(C(=O)Nc3nc4cc(C5=CCCCC5)ccc4[nH]3)cn12 [Example 83, 5-Methyl-imidazo[1,2-a]pyridine-2-carboxylic acid (5-cyclohex-1-enyl-1H-benzoimidazol-2-yl)-amide] | 4.17 | 1.45 | –
Cc1cccn2cc(C(=O)Nc3nc4cc(-c5cccc(C#N)c5)ccc4[nH]3)nc12 [Example 84, 8-Methyl-imidazo[1,2-a]pyridine-2-carboxylic acid [5-(3-cyano-phenyl)-1H-benzoimidazol-2-yl]-amide] | 2.9 | 1.21 | –
Cc1cccc2nc(C(=O)Nc3nc4cc(-c5cc(Cl)ccc5Cl)ccc4[nH]3)cn12 [Example 87, 5-Methyl-imidazo[1,2-a]pyridine-2-carboxylic acid [5-(2,5-dichloro-phenyl)-1H-benzoimidazol-2-yl]-amide] | 0.73 | 0.22 | –
Cc1cccc2nc(C(=O)Nc3nc4cc(-c5ccc(C(F)(F)F)c(Cl)c5)ccc4[nH]3)cn12 [Example 92, 5-Methyl-imidazo[1,2-a]pyridine-2-carboxylic acid [5-(3-chloro-4-trifluoromethyl-phenyl)-1H-benzoimidazol-2-yl]-amide] | 0.22 | 0.6 | –
Cc1cccc2nc(C(=O)Nc3nc4cc(-c5ccc(OC(C)C)cc5)ccc4[nH]3)cn12 [Example 97, 5-Methyl-imidazo[1,2-a]pyridine-2-carboxylic acid [5-(4-isopropoxy-phenyl)-1H-benzoimidazol-2-yl]-amide] | 1.78 | 0.58 | –
Cc1cc(-c2ccc3[nH]c(NC(=O)c4cn5c(C)cccc5n4)nc3c2)ccc1Cl [Example 99, 5-Methyl-imidazo[1,2-a]pyridine-2-carboxylic acid [5-(4-chloro-3-methyl-phenyl)-1H-benzoimidazol-2-yl]-amide] | 0.12 | 0.27 | –
Cc1cccc2nc(C(=O)Nc3nc4cc(-c5ccc(O)c(C(F)(F)F)c5)ccc4[nH]3)cn12 [Example 100, 5-Methyl-imidazo[1,2-a]pyridine-2-carboxylic acid [5-(4-hydroxy-3-trifluoromethyl-phenyl)-1H-benzoimidazol-2-yl]-amide] | 2.44 | 0.46 | –
Cc1cccc2nc(C(=O)Nc3nc4cc(-c5ccsc5)ccc4[nH]3)cn12 [Example 102, 5-Methyl-imidazo[1,2-a]pyridine-2-carboxylic acid (5-thiophen-3-yl-1H-benzoimidazol-2-yl)-amide] | 2.46 | 0.45 | –
CCOc1ccc(-c2ccc3[nH]c(NC(=O)c4cn5c(C)cccc5n4)nc3c2)cc1Cl [Example 106, 5-Methyl-imidazo[1,2-a]pyridine-2-carboxylic acid [5-(3-chloro-4-ethoxy-phenyl)-1H-benzoimidazol-2-yl]-amide] | 0.93 | 0.8 | –
CCOc1ccc(-c2ccc3[nH]c(NC(=O)c4cn5c(C)cccc5n4)nc3c2)cc1C [Example 107, 5-Methyl-imidazo[1,2-a]pyridine-2-carboxylic acid [5-(4-ethoxy-3-methyl-phenyl)-1H-benzoimidazol-2-yl]-amide] | 2.95 | 0.84 | –
